Test results from article PMC7531004, “Discovery of gramicidin A analogues with altered activities by multidimensional screening of a one-bead-one-compound library” (Nature Communications, 2020).
Where a SMILES comes first, the peptide text is derived from it. [ ]: non-standard residue; d: D form. The star is where a group is joined. NHCH2CH2OH = OCCN*; For = O=C*

Tests used:
[1] = H+/Na+ transport assay of bead-derived peptides (one-point); format: biochemical; set-up: key: relative activity; mean of two control wells = 1.00; conditions: bead-derived peptide solution, EYPC/EYPG LUVs;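 note: relative to parent gramicidin A activity set to 1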
Outline: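 Pyranine (1.0 mM)-loaded LUVs containing egg yolk phosphatidylglycerol were prepared by film hydration, sonication and extrusion, then mixed with diluted bead-derived peptide in 96-well format and vortexed 30 min at room temperature. Fluorescence was normalized between untreated LUVs (0%) and Triton X-100 lysis (100%).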

[2] = tested on: P388 mouse leukemia cells; conditions: 92 h
Outline: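 First, library peptide stocks are diluted 250-fold in RPMI1640 with 10% heat-inactivated FBS. Next, they are mixed with P388 cells to give 1 × 10^4 cells/mL and incubated 92 h at 37 °C, 5% CO2. Finally, viability (%) is scored by WST-1 absorbance at 415 nm.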

[3] = tested on: Streptococcus pyogenes SSI-9; assay: Antibacterial activity assay of bead-derived peptides (three concentrations); format: cell-based; set-up: key: +++: inhibition by the 640-fold diluted peptide solution; ++: inhibition by the 160-fold diluted solution; +: inhibition by the 40-fold diluted solution; -: no inhibition; conditions: S. pyogenes, bead-derived peptide solution, three concentrations
Outline: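 Bead-derived library peptide stocks in DMSO were tested undiluted and after 4- and 16-fold DMSO dilution against S. pyogenes SSI-9 (2 × 10^5 CFU/well) in cation-adjusted Mueller Hinton Broth with 5% laked horse blood. After 18 h at 37 °C, wells were scored for precipitation of grown cells.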

SMILES: CC(C)C[C@@H](NC(=O)[C@H](Cc1c[nH]c2ccccc12)NC(=O)[C@H](NC(=O)[C@@H](NC(=O)[C@H](NC(=O)[C@H](C)NC(=O)[C@H](NC(=O)[C@H](C)NC(=O)CNC(=O)[C@@H](NC=O)C(C)C)[C@H](C)O)C(C)C)C(C)C)C(C)C)C(=O)N[C@@H](Cc1c[nH]c2ccccc12)C(=O)N[C@H](CC(C)C)C(=O)N[C@@H](Cc1c[nH]c2ccccc12)C(=O)N[C@@H](C(=O)N[C@@H](Cc1c[nH]c2ccccc12)C(=O)NCCO)C(C)C [compound 6843] (For-VGA[dT]A[dV]V[dV]W[dL]W[dL]W[dV]W-NHCH2CH2OH)
- H+/Na+ transport activity normalized against the value of 1 (1.00) [1]: 1.15
- cell viability/% [2]: 100.0%
- antibacterial activity [3]: -

SMILES: CC(C)C[C@@H](NC(=O)[C@H](Cc1c[nH]c2ccccc12)NC(=O)[C@H](NC(=O)[C@@H](NC(=O)[C@H](NC(=O)[C@H](C)NC(=O)[C@H](NC(=O)[C@H](C)NC(=O)CNC(=O)[C@@H](NC=O)C(C)C)[C@H](C)O)C(C)C)C(C)C)C(C)C)C(=O)N[C@@H](Cc1c[nH]c2ccccc12)C(=O)N[C@@H](C(=O)N[C@@H](Cc1c[nH]c2ccccc12)C(=O)N[C@@H](C(=O)N[C@@H](Cc1c[nH]c2ccccc12)C(=O)NCCO)C(C)C)C(C)C [compound 12298] (For-VGA[dT]A[dV]V[dV]W[dL]W[dV]W[dV]W-NHCH2CH2OH)
- H+/Na+ transport activity normalized against the value of 1 (1.00) [1]: 1.04
- cell viability/% [2]: 100.0%
- antibacterial activity [3]: -

SMILES: CC(C)C[C@@H](NC(=O)[C@H](C)NC(=O)CNC(=O)[C@@H](NC=O)C(C)C)C(=O)N[C@@H](C)C(=O)N[C@H](CC(C)C)C(=O)N[C@H](C(=O)N[C@H](CC(C)C)C(=O)N[C@@H](Cc1c[nH]c2ccccc12)C(=O)N[C@H](CC(C)C)C(=O)N[C@@H](Cc1c[nH]c2ccccc12)C(=O)N[C@@H](C(=O)N[C@@H](Cc1c[nH]c2ccccc12)C(=O)N[C@@H](C(=O)N[C@@H](Cc1c[nH]c2ccccc12)C(=O)NCCO)C(C)C)[C@H](C)O)C(C)C [compound 3143] (For-VGA[dL]A[dL]V[dL]W[dL]W[dT]W[dV]W-NHCH2CH2OH)
- H+/Na+ transport activity normalized against the value of 1 (1.00) [1]: 1.04
- cell viability/% [2]: 99.9%
- antibacterial activity [3]: +

SMILES: CC(C)C[C@@H](NC(=O)[C@H](Cc1c[nH]c2ccccc12)NC(=O)[C@@H](CC(C)C)NC(=O)[C@H](Cc1c[nH]c2ccccc12)NC(=O)[C@@H](CC(C)C)NC(=O)[C@H](Cc1c[nH]c2ccccc12)NC(=O)[C@@H](CC(C)C)NC(=O)[C@@H](NC(=O)[C@H](NC(=O)[C@H](C)NC(=O)[C@H](NC(=O)[C@H](C)NC(=O)CNC(=O)[C@@H](NC=O)C(C)C)C(C)C)C(C)C)C(C)C)C(=O)N[C@@H](Cc1c[nH]c2ccccc12)C(=O)NCCO [compound 3308] (For-VGA[dV]A[dV]V[dL]W[dL]W[dL]W[dL]W-NHCH2CH2OH)
- H+/Na+ transport activity normalized against the value of 1 (1.00) [1]: 1.15
- cell viability/% [2]: 0.1%
- antibacterial activity [3]: ++

SMILES: CC(C)C[C@@H](NC(=O)[C@H](C)NC(=O)CNC(=O)[C@@H](NC=O)C(C)C)C(=O)N[C@@H](C)C(=O)N[C@H](CC(C)C)C(=O)N[C@H](C(=O)N[C@H](CC(C)C)C(=O)N[C@@H](Cc1c[nH]c2ccccc12)C(=O)N[C@@H](C(=O)N[C@@H](Cc1c[nH]c2ccccc12)C(=O)N[C@@H](C(=O)N[C@@H](Cc1c[nH]c2ccccc12)C(=O)N[C@@H](C(=O)N[C@@H](Cc1c[nH]c2ccccc12)C(=O)NCCO)C(C)C)C(C)C)C(C)C)C(C)C [compound 7408] (For-VGA[dL]A[dL]V[dL]W[dV]W[dV]W[dV]W-NHCH2CH2OH)
- H+/Na+ transport activity normalized against the value of 1 (1.00) [1]: 1.06
- cell viability/% [2]: 19.4%
- antibacterial activity [3]: -

SMILES: CC(C)C[C@@H](NC(=O)[C@H](C)NC(=O)[C@H](NC(=O)[C@H](C)NC(=O)CNC(=O)[C@@H](NC=O)C(C)C)[C@H](C)O)C(=O)N[C@H](C(=O)N[C@H](CC(C)C)C(=O)N[C@@H](Cc1c[nH]c2ccccc12)C(=O)N[C@@H](C(=O)N[C@@H](Cc1c[nH]c2ccccc12)C(=O)N[C@H](CC(C)C)C(=O)N[C@@H](Cc1c[nH]c2ccccc12)C(=O)N[C@@H](C(=O)N[C@@H](Cc1c[nH]c2ccccc12)C(=O)NCCO)C(C)C)[C@H](C)O)C(C)C [compound 6248] (For-VGA[dT]A[dL]V[dL]W[dT]W[dL]W[dV]W-NHCH2CH2OH)
- H+/Na+ transport activity normalized against the value of 1 (1.00) [1]: 1.10
- cell viability/% [2]: 87.7%
- antibacterial activity [3]: -

SMILES: CNC(=O)C[C@@H](NC(=O)[C@H](Cc1c[nH]c2ccccc12)NC(=O)[C@@H](CC(C)C)NC(=O)[C@H](Cc1c[nH]c2ccccc12)NC(=O)[C@H](NC(=O)[C@H](Cc1c[nH]c2ccccc12)NC(=O)[C@@H](CC(C)C)NC(=O)[C@@H](NC(=O)[C@H](NC(=O)[C@H](C)NC(=O)[C@H](NC(=O)[C@H](C)NC(=O)CNC(=O)[C@@H](NC=O)C(C)C)C(C)C)C(C)C)C(C)C)C(C)C)C(=O)N[C@@H](Cc1c[nH]c2ccccc12)C(=O)NCCO [compound 2526] (For-VGA[dV]A[dV]V[dL]W[dV]W[dL]W[dD](NHMe)W-NHCH2CH2OH)
- H+/Na+ transport activity normalized against the value of 1 (1.00) [1]: 1.02
- cell viability/% [2]: 100.0%
- antibacterial activity [3]: -

SMILES: CNC(=O)C[C@@H](NC(=O)[C@@H](NC(=O)[C@H](NC(=O)[C@H](C)NC(=O)[C@H](NC(=O)[C@H](C)NC(=O)CNC(=O)[C@@H](NC=O)C(C)C)C(C)C)C(C)C)C(C)C)C(=O)N[C@@H](Cc1c[nH]c2ccccc12)C(=O)N[C@H](CC(C)C)C(=O)N[C@@H](Cc1c[nH]c2ccccc12)C(=O)N[C@H](CC(C)C)C(=O)N[C@@H](Cc1c[nH]c2ccccc12)C(=O)N[C@@H](C(=O)N[C@@H](Cc1c[nH]c2ccccc12)C(=O)NCCO)C(C)C [compound 231] (For-VGA[dV]A[dV]V[dD](NHMe)W[dL]W[dL]W[dV]W-NHCH2CH2OH)
- H+/Na+ transport activity normalized against the value of 1 (1.00) [1]: 1.14
- cell viability/% [2]: 100.0%
- antibacterial activity [3]: -

SMILES: CC(C)C[C@@H](NC(=O)[C@H](C)NC(=O)CNC(=O)[C@@H](NC=O)C(C)C)C(=O)N[C@@H](C)C(=O)N[C@@H](C(=O)N[C@H](C(=O)N[C@@H](C(=O)N[C@@H](Cc1c[nH]c2ccccc12)C(=O)N[C@@H](C(=O)N[C@@H](Cc1c[nH]c2ccccc12)C(=O)N[C@@H](C(=O)N[C@@H](Cc1c[nH]c2ccccc12)C(=O)N[C@H](CC(C)C)C(=O)N[C@@H](Cc1c[nH]c2ccccc12)C(=O)NCCO)C(C)C)C(C)C)[C@H](C)O)C(C)C)C(C)C [compound 4778] (For-VGA[dL]A[dV]V[dT]W[dV]W[dV]W[dL]W-NHCH2CH2OH)
- H+/Na+ transport activity normalized against the value of 1 (1.00) [1]: 1.09
- cell viability/% [2]: 100.0%
- antibacterial activity [3]: -

SMILES: CNC(=O)C[C@@H](NC(=O)[C@H](C)NC(=O)[C@@H](CC(C)C)NC(=O)[C@H](C)NC(=O)CNC(=O)[C@@H](NC=O)C(C)C)C(=O)N[C@H](C(=O)N[C@@H](C(=O)N[C@@H](Cc1c[nH]c2ccccc12)C(=O)N[C@H](CC(C)C)C(=O)N[C@@H](Cc1c[nH]c2ccccc12)C(=O)N[C@@H](C(=O)N[C@@H](Cc1c[nH]c2ccccc12)C(=O)N[C@H](CC(C)C)C(=O)N[C@@H](Cc1c[nH]c2ccccc12)C(=O)NCCO)C(C)C)C(C)C)C(C)C [compound 13123] (For-VGA[dL]A[dD](NHMe)V[dV]W[dL]W[dV]W[dL]W-NHCH2CH2OH)
- H+/Na+ transport activity normalized against the value of 1 (1.00) [1]: 1.24
- cell viability/% [2]: 100.0%
- antibacterial activity [3]: -

SMILES: CNC(=O)C[C@@H](NC(=O)[C@@H](NC(=O)[C@@H](CC(C)C)NC(=O)[C@H](C)NC(=O)[C@H](NC(=O)[C@H](C)NC(=O)CNC(=O)[C@@H](NC=O)C(C)C)C(C)C)C(C)C)C(=O)N[C@@H](Cc1c[nH]c2ccccc12)C(=O)N[C@H](CC(C)C)C(=O)N[C@@H](Cc1c[nH]c2ccccc12)C(=O)N[C@@H](C(=O)N[C@@H](Cc1c[nH]c2ccccc12)C(=O)N[C@@H](C(=O)N[C@@H](Cc1c[nH]c2ccccc12)C(=O)NCCO)C(C)C)C(C)C [compound 11349] (For-VGA[dV]A[dL]V[dD](NHMe)W[dL]W[dV]W[dV]W-NHCH2CH2OH)
- H+/Na+ transport activity normalized against the value of 1 (1.00) [1]: 1.00
- cell viability/% [2]: 34.3%
- antibacterial activity [3]: -

SMILES: CC(C)C[C@@H](NC(=O)[C@H](C)NC(=O)[C@H](NC(=O)[C@H](C)NC(=O)CNC(=O)[C@@H](NC=O)C(C)C)C(C)C)C(=O)N[C@H](C(=O)N[C@@H](C(=O)N[C@@H](Cc1c[nH]c2ccccc12)C(=O)N[C@@H](C(=O)N[C@@H](Cc1c[nH]c2ccccc12)C(=O)N[C@H](CC(C)C)C(=O)N[C@@H](Cc1c[nH]c2ccccc12)C(=O)N[C@@H](C(=O)N[C@@H](Cc1c[nH]c2ccccc12)C(=O)NCCO)C(C)C)C(C)C)[C@H](C)O)C(C)C [compound 7131] (For-VGA[dV]A[dL]V[dT]W[dV]W[dL]W[dV]W-NHCH2CH2OH)
- H+/Na+ transport activity normalized against the value of 1 (1.00) [1]: 1.08
- cell viability/% [2]: 100.0%
- antibacterial activity [3]: -

SMILES: CC(C)C[C@@H](NC(=O)[C@H](C)NC(=O)[C@H](NC(=O)[C@H](C)NC(=O)CNC(=O)[C@@H](NC=O)C(C)C)[C@H](C)O)C(=O)N[C@H](C(=O)N[C@H](CC(C)C)C(=O)N[C@@H](Cc1c[nH]c2ccccc12)C(=O)N[C@@H](C(=O)N[C@@H](Cc1c[nH]c2ccccc12)C(=O)N[C@H](CC(C)C)C(=O)N[C@@H](Cc1c[nH]c2ccccc12)C(=O)N[C@@H](C(=O)N[C@@H](Cc1c[nH]c2ccccc12)C(=O)NCCO)C(C)C)[C@H](C)O)C(C)C [compound 7135] (For-VGA[dT]A[dL]V[dL]W[dT]W[dL]W[dV]W-NHCH2CH2OH)
- H+/Na+ transport activity normalized against the value of 1 (1.00) [1]: 1.09
- cell viability/% [2]: 100.0%
- antibacterial activity [3]: -
